Test results taken from paper PMC9927415, “Tyrosine Kinase Inhibitors Display Potent Activity against Cryptosporidium parvum” (Microbiology Spectrum, 2022).
Read-outs that look alike come from different tables or passages of the source.

Assays:
Assay in all cases: KINOMEscan competitive binding
TESK1 = biological target: T1, TESK1 (Homo sapiens, UniProt Q15569); details: n=1, read-out: Percent inhibition, TESK1
T1 construct: purchased DiscoverX (KINOMEscan)

TLK1 = biological target: T2, TLK1 (Homo sapiens, UniProt Q9UKI8); details: n=1, read-out: Percent inhibition, TLK1
T2 construct: purchased DiscoverX (KINOMEscan)
T2 sequence (Q9UKI8 1-766): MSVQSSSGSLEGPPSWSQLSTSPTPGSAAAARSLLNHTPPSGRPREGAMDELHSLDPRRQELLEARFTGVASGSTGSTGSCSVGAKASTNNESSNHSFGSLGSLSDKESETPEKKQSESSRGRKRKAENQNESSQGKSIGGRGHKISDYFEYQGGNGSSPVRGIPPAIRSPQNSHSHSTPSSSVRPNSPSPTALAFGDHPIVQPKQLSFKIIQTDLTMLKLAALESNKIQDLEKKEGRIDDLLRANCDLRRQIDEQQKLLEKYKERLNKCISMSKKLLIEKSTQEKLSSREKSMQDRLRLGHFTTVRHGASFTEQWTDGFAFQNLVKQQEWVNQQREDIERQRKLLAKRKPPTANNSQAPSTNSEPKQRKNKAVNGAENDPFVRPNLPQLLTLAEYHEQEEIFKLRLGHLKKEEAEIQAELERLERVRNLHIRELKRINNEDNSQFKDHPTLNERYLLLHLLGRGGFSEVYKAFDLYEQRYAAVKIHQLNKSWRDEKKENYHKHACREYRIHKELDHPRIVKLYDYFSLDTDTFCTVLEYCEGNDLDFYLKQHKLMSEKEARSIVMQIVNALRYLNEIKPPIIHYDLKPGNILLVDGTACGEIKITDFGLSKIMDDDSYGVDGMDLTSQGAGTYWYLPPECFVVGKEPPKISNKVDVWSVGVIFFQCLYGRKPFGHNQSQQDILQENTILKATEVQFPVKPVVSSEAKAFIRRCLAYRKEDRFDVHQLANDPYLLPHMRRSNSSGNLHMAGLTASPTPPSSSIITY

YANK2 = biological target: T3, YANK2 (Homo sapiens, UniProt Q9NY57); details: n=1, read-out: Percent inhibition, YANK2
T3 construct: purchased DiscoverX (KINOMEscan)

CSNK1E = biological target: T4, CSNK1E (Homo sapiens, UniProt P49674)
T4 construct: purchased DiscoverX (KINOMEscan)
Summary of the method: (§1)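 T7 phage-fused kinases; compound displaces immobilized ATP-site probe ligand; bead-bound kinase quantified; % inhibition reported.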

CLK2 = biological target: T5, CLK2 (Homo sapiens, UniProt P49760)
T5 construct: purchased DiscoverX (KINOMEscan)
Summary of the method: as §1

CLK1 = biological target: T6, CLK1 (Homo sapiens, UniProt P49759)
T6 construct: purchased DiscoverX (KINOMEscan)
Summary of the method: as §1

FLT1 = biological target: T7, FLT1 (Homo sapiens, UniProt P17948); details: for inhibition at 10 µM: n=1, kinase FLT1, read-out: Percent inhibition FLT1
T7 construct: purchased DiscoverX (KINOMEscan)
Summary of the method: as §1

FLT3 = biological target: T8, FLT3 (Homo sapiens, UniProt P36888)
T8 construct: purchased DiscoverX (KINOMEscan)
T8 sequence (P36888 27-993): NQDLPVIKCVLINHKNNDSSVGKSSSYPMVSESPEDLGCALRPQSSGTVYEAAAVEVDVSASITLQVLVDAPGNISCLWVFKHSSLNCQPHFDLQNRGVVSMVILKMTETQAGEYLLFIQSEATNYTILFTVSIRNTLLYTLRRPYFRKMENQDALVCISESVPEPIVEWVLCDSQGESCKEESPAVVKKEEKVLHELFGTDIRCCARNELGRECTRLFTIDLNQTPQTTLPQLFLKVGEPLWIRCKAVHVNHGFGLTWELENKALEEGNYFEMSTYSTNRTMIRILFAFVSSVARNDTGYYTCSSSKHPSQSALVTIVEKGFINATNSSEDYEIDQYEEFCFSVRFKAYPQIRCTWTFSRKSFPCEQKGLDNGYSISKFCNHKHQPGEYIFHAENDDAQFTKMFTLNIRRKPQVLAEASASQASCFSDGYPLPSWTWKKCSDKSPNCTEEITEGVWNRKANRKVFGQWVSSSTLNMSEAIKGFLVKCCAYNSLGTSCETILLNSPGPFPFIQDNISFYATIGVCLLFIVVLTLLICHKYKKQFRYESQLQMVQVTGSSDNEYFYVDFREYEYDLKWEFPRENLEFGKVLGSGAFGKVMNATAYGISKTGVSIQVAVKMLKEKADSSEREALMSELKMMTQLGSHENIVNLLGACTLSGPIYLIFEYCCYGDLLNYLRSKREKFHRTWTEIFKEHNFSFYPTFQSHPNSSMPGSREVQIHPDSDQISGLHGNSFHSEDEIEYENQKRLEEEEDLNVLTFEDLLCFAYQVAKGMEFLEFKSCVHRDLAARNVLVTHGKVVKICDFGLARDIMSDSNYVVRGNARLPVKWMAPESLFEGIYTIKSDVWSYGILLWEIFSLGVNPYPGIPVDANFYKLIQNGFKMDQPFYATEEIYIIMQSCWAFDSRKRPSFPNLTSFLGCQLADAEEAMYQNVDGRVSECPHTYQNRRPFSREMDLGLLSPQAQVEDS
Summary of the method: as §1

CDK2 = biological target: T9, CDK2 (Homo sapiens, UniProt P24941)
T9 construct: purchased DiscoverX (KINOMEscan)
Summary of the method: as §1

KDR (VEGFR2) = biological target: T10, KDR (VEGFR2) (Homo sapiens, UniProt P35968); details: for inhibition at 10 µM: KINOMEscan, n=1, read-out: Percent inhibition, VEGFR2
T10 construct: purchased DiscoverX (KINOMEscan)
Summary of the method: as §1

CSNK2A1 = biological target: T11, CSNK2A1 (Homo sapiens, UniProt P68400)
T11 construct: purchased DiscoverX (KINOMEscan)
Summary of the method: as §1

PDGFRβ = biological target: T12, PDGFRβ (Homo sapiens, UniProt P09619)
T12 construct: purchased DiscoverX (KINOMEscan)
Summary of the method: as §1

[1] = 10 µM, n=1, kinase CSNK1E, read-out: Percent inhibition CSNK1E
[2] = 10 µM, n=1, kinase CLK2, read-out: Percent inhibition CLK2
[3] = 10 µM, n=1, kinase CLK1, read-out: Percent inhibition CLK1
[4] = 10 µM, n=1, kinase FLT3, read-out: Percent inhibition FLT3
[5] = 10 μM, n = 1, read-out: percent inhibition CDK2
[6] = 10 µM, n=1, kinase CDK2, read-out: Percent inhibition CDK2
[7] = 10 µM, n=1, kinase CSNK2A1, read-out: Percent inhibition CSNK2A1
[8] = KINOMEscan, 10 µM, n=1, read-out: Percent inhibition, PDGFRB
[9] = 10 μM, n = 1, read-out: percent inhibition FLT3

T6 sequence (P49759 whole entry): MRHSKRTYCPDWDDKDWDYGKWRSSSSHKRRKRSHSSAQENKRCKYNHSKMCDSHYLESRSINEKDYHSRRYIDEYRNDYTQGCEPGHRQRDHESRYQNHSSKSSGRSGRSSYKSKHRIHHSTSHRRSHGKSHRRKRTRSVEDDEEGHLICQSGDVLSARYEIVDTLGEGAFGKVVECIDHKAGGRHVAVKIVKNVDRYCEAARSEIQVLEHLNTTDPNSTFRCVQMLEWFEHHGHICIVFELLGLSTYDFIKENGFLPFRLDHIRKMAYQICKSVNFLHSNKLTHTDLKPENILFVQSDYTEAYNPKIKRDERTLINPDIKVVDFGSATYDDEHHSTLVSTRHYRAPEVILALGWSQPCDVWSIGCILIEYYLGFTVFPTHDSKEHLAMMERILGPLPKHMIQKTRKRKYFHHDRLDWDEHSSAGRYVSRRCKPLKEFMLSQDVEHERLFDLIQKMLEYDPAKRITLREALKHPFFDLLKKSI
T5 sequence (P49760 whole entry): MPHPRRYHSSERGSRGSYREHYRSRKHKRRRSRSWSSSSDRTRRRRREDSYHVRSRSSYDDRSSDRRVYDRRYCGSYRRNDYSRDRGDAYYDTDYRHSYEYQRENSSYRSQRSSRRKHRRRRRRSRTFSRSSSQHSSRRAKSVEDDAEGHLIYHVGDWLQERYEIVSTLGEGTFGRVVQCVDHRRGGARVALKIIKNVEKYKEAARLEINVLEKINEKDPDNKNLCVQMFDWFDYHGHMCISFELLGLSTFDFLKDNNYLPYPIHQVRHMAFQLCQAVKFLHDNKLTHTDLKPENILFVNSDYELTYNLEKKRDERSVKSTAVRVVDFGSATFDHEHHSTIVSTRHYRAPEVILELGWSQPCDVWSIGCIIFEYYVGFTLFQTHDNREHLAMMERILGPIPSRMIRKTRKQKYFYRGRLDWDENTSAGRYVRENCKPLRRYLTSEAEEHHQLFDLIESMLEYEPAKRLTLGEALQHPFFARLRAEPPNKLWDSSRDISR
T7 sequence (P17948 27-1338): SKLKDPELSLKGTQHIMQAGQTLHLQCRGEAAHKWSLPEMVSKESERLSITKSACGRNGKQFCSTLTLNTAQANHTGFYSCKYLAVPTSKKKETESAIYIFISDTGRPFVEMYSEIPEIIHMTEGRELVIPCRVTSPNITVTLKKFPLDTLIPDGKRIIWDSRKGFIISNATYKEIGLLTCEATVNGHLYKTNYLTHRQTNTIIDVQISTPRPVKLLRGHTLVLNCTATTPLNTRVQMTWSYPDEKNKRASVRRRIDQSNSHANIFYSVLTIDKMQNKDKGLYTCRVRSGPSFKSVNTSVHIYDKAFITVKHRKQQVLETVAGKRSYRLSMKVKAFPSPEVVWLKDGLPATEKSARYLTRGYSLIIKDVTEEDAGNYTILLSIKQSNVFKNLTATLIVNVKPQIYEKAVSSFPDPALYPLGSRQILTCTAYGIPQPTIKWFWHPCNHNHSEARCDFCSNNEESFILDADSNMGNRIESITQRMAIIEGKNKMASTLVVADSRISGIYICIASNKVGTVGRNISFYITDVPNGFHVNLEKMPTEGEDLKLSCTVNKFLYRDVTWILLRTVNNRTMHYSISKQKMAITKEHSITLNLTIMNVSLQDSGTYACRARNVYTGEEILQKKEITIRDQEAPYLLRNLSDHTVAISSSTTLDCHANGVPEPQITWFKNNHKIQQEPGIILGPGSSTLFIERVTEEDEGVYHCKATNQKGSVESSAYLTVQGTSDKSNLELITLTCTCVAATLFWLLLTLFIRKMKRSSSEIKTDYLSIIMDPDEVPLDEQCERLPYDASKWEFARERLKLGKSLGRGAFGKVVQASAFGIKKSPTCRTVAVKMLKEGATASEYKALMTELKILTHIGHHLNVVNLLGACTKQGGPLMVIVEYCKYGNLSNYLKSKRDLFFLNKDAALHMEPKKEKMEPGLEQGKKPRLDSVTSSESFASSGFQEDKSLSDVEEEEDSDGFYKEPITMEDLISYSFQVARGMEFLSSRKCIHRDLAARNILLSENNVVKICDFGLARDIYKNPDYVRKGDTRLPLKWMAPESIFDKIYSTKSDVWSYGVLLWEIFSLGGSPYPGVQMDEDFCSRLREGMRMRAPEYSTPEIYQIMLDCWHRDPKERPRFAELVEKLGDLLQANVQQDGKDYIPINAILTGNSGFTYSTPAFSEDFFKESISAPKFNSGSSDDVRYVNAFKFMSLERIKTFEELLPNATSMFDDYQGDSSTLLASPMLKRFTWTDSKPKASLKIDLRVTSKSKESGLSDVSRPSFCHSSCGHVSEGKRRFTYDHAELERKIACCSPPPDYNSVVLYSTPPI
T12 sequence (P09619 33-1106): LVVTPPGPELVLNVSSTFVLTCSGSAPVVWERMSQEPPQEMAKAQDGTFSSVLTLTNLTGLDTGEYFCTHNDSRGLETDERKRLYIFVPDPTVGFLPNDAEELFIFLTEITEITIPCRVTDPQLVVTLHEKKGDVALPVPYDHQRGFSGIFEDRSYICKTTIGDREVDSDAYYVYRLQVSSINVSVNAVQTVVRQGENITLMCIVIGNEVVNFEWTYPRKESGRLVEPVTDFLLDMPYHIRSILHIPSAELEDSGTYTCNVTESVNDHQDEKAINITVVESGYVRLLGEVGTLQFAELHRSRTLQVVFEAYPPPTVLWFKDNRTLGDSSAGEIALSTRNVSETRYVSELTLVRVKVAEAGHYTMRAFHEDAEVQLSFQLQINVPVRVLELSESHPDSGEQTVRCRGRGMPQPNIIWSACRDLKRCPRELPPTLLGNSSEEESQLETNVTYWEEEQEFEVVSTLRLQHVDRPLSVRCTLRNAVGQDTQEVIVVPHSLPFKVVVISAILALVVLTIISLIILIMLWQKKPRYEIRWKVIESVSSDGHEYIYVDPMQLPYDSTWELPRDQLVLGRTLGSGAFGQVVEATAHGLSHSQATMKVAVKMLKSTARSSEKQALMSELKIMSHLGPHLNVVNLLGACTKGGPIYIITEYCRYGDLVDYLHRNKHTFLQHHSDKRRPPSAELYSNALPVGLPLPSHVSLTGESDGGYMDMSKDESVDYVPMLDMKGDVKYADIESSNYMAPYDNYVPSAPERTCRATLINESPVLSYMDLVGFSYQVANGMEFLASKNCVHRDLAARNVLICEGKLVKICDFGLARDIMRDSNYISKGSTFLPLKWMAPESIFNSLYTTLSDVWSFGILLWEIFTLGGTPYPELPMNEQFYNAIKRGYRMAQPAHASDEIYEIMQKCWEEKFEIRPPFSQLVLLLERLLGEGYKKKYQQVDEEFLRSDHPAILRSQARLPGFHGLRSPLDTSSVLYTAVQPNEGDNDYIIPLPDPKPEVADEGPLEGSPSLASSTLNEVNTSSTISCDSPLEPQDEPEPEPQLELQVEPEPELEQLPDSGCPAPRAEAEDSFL
T1 sequence (Q15569 whole entry): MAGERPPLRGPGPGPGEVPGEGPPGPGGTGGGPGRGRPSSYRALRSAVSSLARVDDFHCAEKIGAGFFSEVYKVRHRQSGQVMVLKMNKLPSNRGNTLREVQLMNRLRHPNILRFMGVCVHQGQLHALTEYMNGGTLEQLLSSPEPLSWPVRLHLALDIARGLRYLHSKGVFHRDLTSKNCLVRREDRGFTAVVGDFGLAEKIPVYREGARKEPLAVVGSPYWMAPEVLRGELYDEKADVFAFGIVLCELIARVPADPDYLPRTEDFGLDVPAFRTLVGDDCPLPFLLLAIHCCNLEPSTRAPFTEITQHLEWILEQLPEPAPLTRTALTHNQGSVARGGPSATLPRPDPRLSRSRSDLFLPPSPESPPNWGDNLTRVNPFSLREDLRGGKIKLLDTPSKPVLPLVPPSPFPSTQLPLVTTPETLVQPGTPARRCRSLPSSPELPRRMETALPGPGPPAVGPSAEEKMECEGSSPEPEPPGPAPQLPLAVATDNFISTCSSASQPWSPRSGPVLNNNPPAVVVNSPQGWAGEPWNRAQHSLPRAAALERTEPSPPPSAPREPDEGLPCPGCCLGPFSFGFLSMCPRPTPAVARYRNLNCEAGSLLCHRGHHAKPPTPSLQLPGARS
T3 sequence (Q9NY57 whole entry): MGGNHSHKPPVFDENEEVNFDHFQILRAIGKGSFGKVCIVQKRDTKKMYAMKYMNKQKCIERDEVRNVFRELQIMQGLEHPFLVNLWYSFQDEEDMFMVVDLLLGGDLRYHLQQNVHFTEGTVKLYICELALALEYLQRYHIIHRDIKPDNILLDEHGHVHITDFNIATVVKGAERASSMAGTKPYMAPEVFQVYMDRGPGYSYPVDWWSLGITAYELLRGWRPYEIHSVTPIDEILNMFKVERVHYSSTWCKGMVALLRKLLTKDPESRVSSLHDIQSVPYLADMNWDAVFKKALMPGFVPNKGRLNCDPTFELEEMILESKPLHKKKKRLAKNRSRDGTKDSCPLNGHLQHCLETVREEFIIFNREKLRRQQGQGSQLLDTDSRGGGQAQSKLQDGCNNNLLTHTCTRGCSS
T4 sequence (P49674 whole entry): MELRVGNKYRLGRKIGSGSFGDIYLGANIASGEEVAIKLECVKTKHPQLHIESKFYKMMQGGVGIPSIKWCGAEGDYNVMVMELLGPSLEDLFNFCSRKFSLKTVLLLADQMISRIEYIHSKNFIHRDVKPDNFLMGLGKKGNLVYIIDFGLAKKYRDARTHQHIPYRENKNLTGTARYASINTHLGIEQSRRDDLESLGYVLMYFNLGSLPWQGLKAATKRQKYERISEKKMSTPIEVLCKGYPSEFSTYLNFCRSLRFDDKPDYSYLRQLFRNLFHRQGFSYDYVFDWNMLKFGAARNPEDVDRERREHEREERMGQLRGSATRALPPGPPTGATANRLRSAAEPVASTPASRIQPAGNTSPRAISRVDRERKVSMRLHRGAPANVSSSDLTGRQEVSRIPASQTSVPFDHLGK

| Structure (SMILES) | inhibition at 10 µM (TESK1) | inhibition at 10 µM (TLK1) | inhibition at 10 µM (YANK2) | inhibition at 10 µM (CSNK1E; [1]) | inhibition at 10 µM (CLK2; [2]) | inhibition at 10 µM (CLK1; [3]) | inhibition at 10 µM (FLT1) | inhibition at 10 µM (FLT3; [4]) | inhibition at 10 µM (CDK2; [6]) | inhibition at 10 µM (KDR (VEGFR2)) | inhibition at 10 µM (CSNK2A1; [7]) | inhibition at 10 µM (PDGFRβ; [8]) | other results |
| --- | --- | --- | --- | --- | --- | --- | --- | --- | --- | --- | --- | --- | --- |
| CN1CCN(c2ccc(Nc3nccc(-c4cnn5ncccc45)n3)cc2C#N)CC1 [Compound 1] | 0% | 99.2% | 0% | 100% | 100% | 99.9% | 99.9% | 100% | 99.5% | 100% | 100% | 100% | inhibition at 10 µM (CDK2; [5]): > 99% |
| COc1ccc(Nc2nccc(-c3cnn4ncccc34)n2)cc1 [Compound 2] | 0% | 0% | 0% | 100% | 99.9% | 99.8% | 99.5% | 99.3% | 99.9% | 92.9% | 82% | 100% | inhibition at 10 µM (CDK2; [5]): > 99% |
| Cc1ccc(O)cc1Nc1ccnc(Nc2cccc(C(N)=O)c2)n1 [Compound 3] | 0% | 0% | 0% | 100% | 91.5% | 0% | 98.3% | 89% | 0% | 81.5% | 0% | 100% |  |
| Cc1ccc(O)cc1N(C)c1ccnc(Nc2cccc(S(N)(=O)=O)c2)n1 [Compound 4] | 79.9% | 0% | 94.5% | 100% | 84.5% | 0% | 99.4% | 92.3% | 0% | 83.7% | 0% | 100% |  |
| Fc1cccc(COc2ccc(Nc3ncnc4c3CN(CCN3CCOCC3)CC4)cc2Cl)c1 [Compound 6] | 0% | 0% | 0% | 0% | 0% | 0% | 0% | 0% | 0% | 0% | 0% | 0% |  |
| COc1cc(Nc2nccc(-c3sc(N)nc3-c3cccc(NC(=O)c4c(F)cccc4F)c3)n2)cc(OC)c1OC [Compound 7] | 100% | 0% | 93% | 99.9% | 0% | 0% | 99.2% | 99.8% | 0% | 89.5% | 0% | 100% |  |
| C[C@@H](Oc1cc(-c2cnc3ccccn23)sc1C(N)=O)c1ccccc1Cl [Compound 8] | 0% | 0% | 0% | 71.7% | 0% | 92.7% | 70% | 98.6% | 0% | 0% | 94.6% | 0% |  |
| c1ccc(COc2cccc(-c3ccnc4[nH]ccc34)c2)cc1 [Compound 9] | 0% | 0% | 0% | 0% | 0% | 0% | 0% | 91.1% | 0% | 0% | 100% | 0% | inhibition at 10 µM (FLT3; [9]): ≥ 90%; inhibition at 10 µM (CSNK2A1; 10 μM, n = 1, read-out: percent inhibition CSNK2A1): ≥ 99% |
| Clc1ccc(Nc2ncc(-c3ccccc3)s2)cc1 [Compound 10] | 0% | 0% | 0% | 0% | 0% | 0% | 0% | 97.1% | 0% | 0% | 0% | 99.9% | inhibition of FLT1, in words (FLT1; kinome profiling, 10 μM): relatively weak inhibition; inhibition at 10 µM (FLT3; [9]): > 90%; inhibition of KDR (VEGFR2), in words (KDR (VEGFR2); kinome profiling, 10 μM): relatively weak inhibition; inhibition at 10 µM (PDGFRβ; 10 μM, n = 1, read-out: percent inhibition PDGFRβ): > 99% |
| Nc1ncc2c(-c3ccncc3)c[nH]c2n1 [Compound 11] | 0% | 0% | 0% | 100% | 99.9% | 99.2% | 0% | 94.5% | 0% | 0% | 0% | 93.2% | inhibition at 10 µM (CSNK1E; 10 μM, n = 1, read-out: percent inhibition CSNK1E): ≥ 99%; inhibition at 10 µM (CLK2; 10 μM, n = 1, read-out: percent inhibition CLK2): ≥ 99%; inhibition at 10 µM (CLK1; 10 μM, n = 1, read-out: percent inhibition CLK1): ≥ 99% |
